Assay results taken from PubChem BioAssay AID1347054 (Pharmacoinformatics Research Group Wien, 2019).
Activity calls are given as the source filed them.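 Rule for the calls: active = clear block of the BCRP drug efflux pump at 10 µM versus solvent-only wells, p under 0.05; inactive = the rest.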

These compounds were tested against Broad substrate specificity ATP-binding cassette transporter ABCG2 (Homo sapiens) (UniProt Q9UNQ0) (assay: BCRP efflux transporter inhibitors, PLB985 cells, flow cytometry (AID 1347054)). Settings: mitoxantrone accumulation, at 10 µM, active compounds read high.
Chain of Broad substrate specificity ATP-binding cassette transporter ABCG2 (Homo sapiens) (Q9UNQ0 whole entry, looked up): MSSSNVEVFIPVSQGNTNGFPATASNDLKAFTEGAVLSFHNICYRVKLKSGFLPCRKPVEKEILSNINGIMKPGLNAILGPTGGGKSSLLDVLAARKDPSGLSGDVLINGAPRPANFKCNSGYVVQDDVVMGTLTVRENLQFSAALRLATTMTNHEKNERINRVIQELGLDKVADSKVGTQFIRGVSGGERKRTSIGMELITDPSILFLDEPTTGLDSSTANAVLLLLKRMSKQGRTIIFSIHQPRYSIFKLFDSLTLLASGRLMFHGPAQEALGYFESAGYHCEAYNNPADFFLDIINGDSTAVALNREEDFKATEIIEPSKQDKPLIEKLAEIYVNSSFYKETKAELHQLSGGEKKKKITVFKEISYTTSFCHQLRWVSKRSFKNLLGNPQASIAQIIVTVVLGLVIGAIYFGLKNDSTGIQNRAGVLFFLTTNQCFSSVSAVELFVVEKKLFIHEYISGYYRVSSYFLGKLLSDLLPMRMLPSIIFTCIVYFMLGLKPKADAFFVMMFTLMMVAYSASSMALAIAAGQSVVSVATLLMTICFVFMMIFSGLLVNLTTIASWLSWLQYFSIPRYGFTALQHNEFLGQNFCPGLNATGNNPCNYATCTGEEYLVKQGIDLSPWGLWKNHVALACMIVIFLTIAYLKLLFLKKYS

SMILES	inhibition
COc1cc(NS(C)(=O)=O)ccc1Nc1c2ccccc2nc2ccccc12	13.7% (inactive)
CN(Cc1ccc(C(C)(C)C)cc1)Cc1cccc2ccccc12	10.8% (inactive)
CS(C)=O	0% (inactive)
COc1ccc2c(c1)C13CCCC[C@@H]1C(C2)N(C)CC3 (stereo partly specified)	-6.11% (inactive)
CCCCN(CCCC)CCC(O)c1cc2c(Cl)cc(Cl)cc2c2cc(C(F)(F)F)ccc12 (stereo unspecified)	-9.66% (inactive)
O=C(Nc1c(Cl)cncc1Cl)c1ccc(OC(F)F)c(OCC2CC2)c1	61.7%
CN(C/C=C/C#CC(C)(C)C)Cc1cccc2ccccc12	9.86% (inactive)
COc1cc(N)c(Cl)cc1C(=O)N[C@@H]1CCN(CCCOc2ccc(F)cc2)C[C@@H]1OC	83.8%
COc1ccc(C(=O)Nc2ccccc2CCC2CCCCN2C)cc1 (stereo unspecified)	13.3% (inactive)
C[C@]12CCC(=O)C=C1[C@@H]1C[C@@H]1[C@H]1[C@@H]3[C@@H]4C[C@@H]4[C@@]4(CCC(=O)O4)[C@@]3(C)CC[C@@H]12	14.4% (inactive)
C=C1CC[C@H](O)C/C1=C/C=C1\CCC[C@]2(C)[C@@H]([C@H](C)CCCC(C)C)CC[C@@H]12	1.28% (inactive)
